Experiment [1] deals with HUVECs. Nature of the experiment: NaIO3-induced injury in HUVECs (MTT). The following applies: 72 h. It counts as cell-based, human. The method, then: (§1) MTT assay was used to measure the viability of ARPE-19 cells and HUVECs. 2×10^5 ARPE-19 cells or 5×10^4 HUVECs were seeded in 96-well plates ([…]) and allowed to grow overnight. Negative control was prepared by adding 100 μl medium without cells. The cells were then treated with fresh medium with COMPOUND I (0.03, 0.1, 0.3, 1, 3 and 10 μg/ml) and/or oxidants (NaIO3, H2O2, t-BHP and NaN3) for 12, 24, or 72 hours (200 μl/well). The vehicle control group was treated with vehicle. 20 μl MTT (5 mg/ml) was added to wells, and incubated for another 4 h. After incubation, the medium was discarded and 100 μl DMSO was added to solubilize formazan produced from MTT by the viable cells. Absorbance was measured at 570 nm using a microplate reader (Bio-Rad Laboratories, Inc., CA). Cells viability was calculated according to the following formula: Viability of cells (%)=(absorbance in tested sample−absorbance in negative control)/(absorbance in vehicle control−absorbance in negative control)×100%.

For the next experiment, the system named is VEGF. The experiment in a line: VEGF levels in retina, Western Blot, streptozotocin-induced diabetic retinopathy. Type of experiment: in vivo, Sprague-Dawley female rats. In general terms: Immunoblotting shows a protein as a band on a membrane.
For experiment [2], the system named is HUVECs. Nature of the experiment: t-BHP-induced injury in HUVECs (MTT). Type of experiment: cell-based, human. The following applies: 12 h; for reversal of t-BHP-induced injury: 200 I-M t-BHP; for enhancement of t-BHP-induced injury: 10 μg/ml. As to the method:
as §1

Experiment [3] relates to HUVECs. The experiment in a line: MTT viability / proliferation of HUVECs. Type of experiment: cell-based, human. The following applies: 72 h. The method, then: ARPE-19 cells were grown in DMEM/F12 medium supplemented with 10% FBS, 100 units/ml penicillin G, and 100 μg/ml streptomycin sulfate. HUVECs were grown in vascular cell basal medium supplemented with endothelial cell growth kit. Cells were incubated in a humidified incubator at 37° C. under 5% CO2 and 95% air.
as §1

In another experiment the test system is mouse model of CNV. Nature of the experiment: Laser-induced CNV mouse model (FP, FFA, OCT). It counts as in vivo, C57BL/6J mice. The method, then: Male C57BL/6J mice (BioLASCO Taiwan Co.) were maintained within the Animal Center at Taipei Medical University (TMU) and the CNV study was performed in accordance with ARVO statement and the experimental protocols were approved by the Institutional Animal Care and Use Committee of TMU (LAC-2017-0130). To create CNV, mice were anesthetized by injection of Balanzine (10% xylazine) (10 mg/kg) and Ketamine (80 mg/kg). The rupture of Bruch's membrane-choroid was achieved by laser photocoagulation (Micron III system, Phoenix Research Laboratories, Pleasanton, Calif.) using CNV laser burns of four spots (0.1-second duration, 250 mW) approximately two disc-diameters away from the optic disc. […]
The OCT module of the Micron III (Phoenix Research Laboratories, Pleasanton, Calif.) retinal imaging microscope was used to obtain images from retinal layers. […] Three retinal layers were defined and measured in the C57BL/6 mice included in this study: the inner layer, which comprises the retinal nerve fiber layer (RNFL), the ganglion cell layer (GCL), and the inner plexiform layer (IPL); the middle layer, which comprises the inner nuclear layer (INL), the outer plexiform layer (OPL), the outer nuclear layer (ONL), and the outer limiting membrane (OLM); and the outer layer, which comprises the inner and outer segments (IS/OS) of the photoreceptors and the retinal pigment epithelium.

Molecules are shown by their SMILES.

As to `COc1ccc(COc2c(/C=C/C(=O)NO)ccc(OC)c2CC=C(C)C)cc1` [COMPOUND I], the “effect on 300 μg/ml NaIO3-induced injury” value in the experiment on HUVECs [1] (0.03 μg/ml to 1 μg/ml, 300 μg/ml NaIO3) is recorded as “reversed”. Moreover, the “effect on viability in NaIO3-induced injury” value in the experiment with HUVECs [1] (10 μg/ml) was “significantly enhanced the viability”. In the experiment on VEGF (0.5% and 1%), the “VEGF level in diabetic eyes, in words” value is listed as “markedly suppressed”. Also, the “VEGF level (Western Blot), DR animals as 100%” value with VEGF (0.5% eye drops tid 6 weeks) is 77%. Moreover, the “VEGF level (Western Blot), DR rats as 100%” value with VEGF (1.0% eye drops tid 6 weeks) was 50%. Moreover, the “reversal of t-BHP-induced injury” value with HUVECs [2] (1 μg/ml) was found to be 26%; in the experiment with HUVECs [2] (3 μg/ml), 28%. The results for the “enhancement of t-BHP-induced injury” value in the experiment with HUVECs [2] (50 μM t-BHP), in the experiment on HUVECs [2] (100 μM t-BHP) and in the experiment with HUVECs [2] (200 μM t-BHP) were 40%, 20% and 51%, respectively. In the experiment on HUVECs [3] (0.03 μg/ml to 1 μg/ml), the “effect on cell growth” value is on record as “did not affect cell growth”. The inhibition (in general, the percentage by which the read-out fell short of the control) at 10 µg/mL in the experiment with HUVECs [3] (Homo sapiens, HUVEC, 10 μg/ml) came to 47%. Moreover, in the experiment with mouse model of CNV (25 mg/kg/d oral for 7 or 28 days), the “leaky area (FFA)” value is “significantly reduced”. Further, the “tissue hyperplasia resulted from laser damage” value with mouse model of CNV (25 mg/kg/d oral, day 7 and day 28) is “ameliorated”.

These data come from patent publication US11045435B2, “Methods for treating ocular diseases” (NATUREWISE BIOTECH & MEDICALS CORPORATION, priority 2016, dated 2021).
